Measurements reported in the supplement of paper PMC10307832.

Assays:
Assay in all cases: relative viability (nuclei count vs DMSO), 5 days (fraction); higher = more cells survive
Kobe2602 + Foretinib = compound: C1=CC(=CC=C1NC(=S)NNC2=C(C=C(C=C2[N+](=O)[O-])C(F)(F)F)[N+](=O)[O-])F [Kobe2602] + COc1cc2c(Oc3ccc(NC(=O)C4(C(=O)Nc5ccc(F)cc5)CC4)cc3F)ccnc2cc1OCCCN1CCOCC1 [Foretinib] (partner 0.25 µM)
How it was run: (§1)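 Dosing by pin tool came one day after lung cancer cell lines were seeded in 1536-well plates, using either one drug or a fixed anchor-drug dose plus five library-drug doses (not always all listed) in √10 steps. After 5 days, nuclei were counted on 4× images. Relative viability is treated-well nuclei count divided by vehicle-well nuclei count, and values are medians of duplicate plates.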

Cabozantinib + Foretinib = compound: COc1cc2nccc(Oc3ccc(NC(=O)C4(C(=O)Nc5ccc(F)cc5)CC4)cc3)c2cc1OC [Cabozantinib] + COc1cc2c(Oc3ccc(NC(=O)C4(C(=O)Nc5ccc(F)cc5)CC4)cc3F)ccnc2cc1OCCCN1CCOCC1 [Foretinib] (partner 0.25 µM)
How it was run: as §1

[1] = compound: COc1cc2nccc(Oc3ccc(NC(=O)C4(C(=O)Nc5ccc(F)cc5)CC4)cc3)c2cc1OC [Cabozantinib] + CCNC(=O)c1noc(-c2cc(C(C)C)c(O)cc2O)c1-c1ccc(CN2CCOCC2)cc1 [Luminespib] (partner 0.01 µM)
How it was run: as §1

Zosuquidar + AZD7762 = compound: O[C@@H](COc1cccc2ncccc12)CN1CCN([C@@H]2c3ccccc3[C@@H]3[C@H](c4ccccc42)C3(F)F)CC1 [Zosuquidar] + NC(=O)Nc1cc(-c2cccc(F)c2)sc1C(=O)N[C@H]1CCCNC1 [AZD7762] (partner 0.2 µM)
How it was run: as §1

Row | Cell Line | relative viability (Kobe2602 + Foretinib; first compound 0.2 µM) | relative viability (Kobe2602 + Foretinib; first compound 0.6325 µM) | relative viability (Kobe2602 + Foretinib; first compound 2 µM) | relative viability (Kobe2602 + Foretinib; first compound 6.325 µM) | relative viability (Kobe2602 + Foretinib; first compound 20 µM) | relative viability (Cabozantinib + Foretinib; first compound 0.02 µM) | relative viability (Cabozantinib + Foretinib; first compound 0.06325 µM) | relative viability (Cabozantinib + Foretinib; first compound 0.2 µM) | relative viability (Cabozantinib + Foretinib; first compound 0.6325 µM) | relative viability (Cabozantinib + Foretinib; first compound 2 µM) | relative viability ([1]; first compound 0.02 µM) | relative viability ([1]; first compound 0.06325 µM) | relative viability ([1]; first compound 0.2 µM) | relative viability ([1]; first compound 0.6325 µM) | relative viability ([1]; first compound 2 µM) | relative viability (Zosuquidar + AZD7762; first compound 0.01 µM) | relative viability (Zosuquidar + AZD7762; first compound 0.03162 µM) | relative viability (Zosuquidar + AZD7762; first compound 0.1 µM) | relative viability (Zosuquidar + AZD7762; first compound 0.3162 µM) | relative viability (Zosuquidar + AZD7762; first compound 1 µM)
1 | NCI-H1623 | 0.966 | 0.954 | 0.79 | 0.809 | 0.854 | 0.783 | 1.05 | 0.695 | 0.828 | 0.874 | 0.53 | 0.497 | 0.47 | 0.446 | 0.492 | – | – | – | – | –
2 | NCI-H460 | 1.07 | 1 | 0.978 | 1.02 | 0.999 | 1.03 | 1.04 | 0.93 | 1 | 1.07 | 0.0282 | 0.0334 | 0.0334 | 0.0351 | 0.0448 | 0.54 | 0.571 | 0.6 | 0.607 | 0.509
3 | NCI-H3122 | 0.969 | 0.88 | 0.967 | 0.925 | 0.967 | 0.947 | 0.973 | 0.949 | 0.892 | 0.946 | 0.111 | 0.102 | 0.0937 | 0.0876 | 0.101 | 0.812 | 0.916 | 0.844 | 1.01 | 1
4 | HCC-44 | – | – | – | – | – | – | – | – | – | – | – | 1.15 | 1.08 | 1 | 1.02 | 1.02 | 1.11 | 1.02 | 1.01 | 1
5 | HCC-78 | 0.628 | 0.541 | 0.669 | 0.575 | 0.577 | – | 0.684 | 0.549 | 0.541 | 0.518 | – | – | – | – | – | 0.685 | – | – | 0.72 | 0.524
6 | COR-L23 | 0.902 | 0.972 | 0.966 | 0.96 | 0.951 | 0.978 | 1.1 | 0.976 | 0.977 | 0.95 | 0.733 | 0.823 | 0.723 | 0.675 | 0.658 | – | – | – | – | –
7 | NCI-H2009 | 1.15 | 1.32 | 1.21 | 1.19 | 1.19 | 1.24 | 1.26 | 1.19 | 1.28 | 1.29 | 1.13 | 1.1 | 1 | 1.1 | 1.14 | – | – | – | – | –
8 | NCI-H322M | 0.971 | 0.98 | 0.923 | 0.959 | 0.963 | 0.967 | 1.21 | 0.899 | 0.874 | 0.931 | 0.922 | 1.14 | 0.817 | 0.969 | 0.941 | 0.586 | 0.507 | 0.495 | 0.56 | 0.49
9 | NCI-H2228 | 0.923 | 0.806 | 0.734 | 0.817 | 0.862 | 1.08 | 1.26 | 0.932 | 0.794 | 0.672 | 0.162 | 0.167 | 0.175 | 0.122 | 0.134 | – | – | – | – | –
10 | NCI-H358 | 0.721 | 0.756 | 0.605 | 0.698 | 0.845 | 0.662 | 0.839 | 0.668 | 0.662 | 0.652 | – | 0.549 | – | 0.322 | 0.136 | 0.55 | 0.541 | 0.492 | 0.503 | 0.43
11 | NCI-H1792 | – | – | – | – | – | – | – | – | – | – | – | 0.404 | 0.501 | 0.334 | 0.325 | 0.539 | 0.623 | 0.5 | 0.817 | 1.19
12 | NCI-H1563 | 0.996 | 0.928 | 0.964 | 1.02 | 0.996 | 1.02 | 0.907 | 0.953 | 0.912 | 0.893 | 0.507 | 0.52 | 0.508 | 0.527 | 0.531 | – | – | – | – | –
13 | NCI-H661 | 0.869 | 1.01 | 0.99 | 1.02 | 1.03 | 0.985 | 1.04 | 1.01 | 1.02 | 1.09 | 0.904 | 0.929 | 1.01 | 0.957 | 0.938 | – | – | – | – | –
14 | NCI-H1650 | 0.998 | 1.31 | 0.962 | 1.09 | 1.59 | 1.31 | 1.48 | 1.02 | 1.27 | 0.978 | 0.187 | 0.202 | 0.185 | 0.185 | 0.169 | – | – | – | – | –
15 | HCC-366 | 0.945 | 0.969 | 0.966 | 0.919 | 0.959 | 0.941 | 0.948 | 0.95 | 0.905 | 0.888 | – | – | – | – | – | 0.23 | 0.227 | 0.285 | 0.369 | 0.298
16 | NCI-H522 | – | – | – | – | – | – | – | – | – | – | 1.15 | 1.41 | 1.56 | 1.07 | 1.23 | 0.993 | 0.928 | 1.05 | 0.807 | 0.984
17 | SK-LU-1 | 0.78 | 0.911 | 0.81 | 0.834 | 0.872 | 0.868 | 1.01 | 0.904 | 0.845 | 0.699 | 0.225 | 0.209 | 0.207 | 0.192 | 0.21 | – | – | – | – | –
18 | SW 1573 | 1.02 | 0.873 | 0.998 | 1 | 1.18 | 0.966 | 0.828 | 0.984 | 1.09 | 0.964 | 0.22 | 0.223 | 0.221 | 0.151 | 0.122 | – | – | – | – | –
19 | EBC-1 | 0.116 | 0.108 | 0.113 | 0.0943 | 0.111 | 0.101 | 0.104 | 0.0976 | 0.0898 | 0.114 | – | – | – | – | – | – | – | – | – | –
20 | IA-LM | 1.09 | 1.01 | 0.953 | 1.24 | 1.01 | 1.15 | 1.15 | 1.22 | 1.23 | 1.24 | – | – | – | – | – | – | – | – | – | –
21 | NCI-H520 | 0.701 | 0.846 | 0.738 | 0.708 | 0.892 | 0.756 | 0.756 | 0.778 | 0.804 | 0.889 | 0.257 | 0.198 | 0.249 | 0.237 | 0.189 | – | – | – | – | –
